18 compounds from patent US10464922B2, “Metalloenzyme inhibitor compounds” (NQP 1598 LTD., priority 2015, dated 2019) can be followed below.

Values after ≈ are worked out from the molar mass of the structure shown. A value given as a limit tells only on which side of the number the result lay.

Assay [1] has as its system C. albicans (ATCC 90028). The assay is described as follows: Minimum inhibitory concentration, in vitro broth microdilution assay (CLSI M27-A2). Type of assay: cell-based, Candida albicans. The conditions noted are these: ATCC 90028, about 50% growth reduction, 2 days at 36° C., range tested 8-0.0078 μg/mL, values given as ranges; for MIC: Candida albicans, ATCC90028, 48 h, read-out: Candida albicans MIC. On the procedure:
The antifungal potency of the test compounds was measured using the in vitro broth microdilution assay under assay conditions described by the Clinical and Laboratory Standards Institute (CLSI M27-A2). The test compounds were dissolved in 100% DMSO, suspended completely by sonication or vortexing, diluted by 2-fold serial titrations in the same vehicle, for a total of 11 test concentrations. A 4 μL aliquot of each dilution was added to 196 μL of RPMI-1640+MOPS medium seeded with the C. albicans (ATCC 90028) suspension in wells of a 96 well plate (fungal cell count: 1×10^3 to 1×10^4 colony forming units per mL). The final volume was 200 μL in each well and the final DMSO concentration was 2 percent. The inoculated plates were incubated for 2 days at 36° C. Following incubation, the test plates were visually examined and wells were scored for growth to define the minimum inhibitory concentration. […] Each test substance was evaluated in duplicate. Vehicle-control and an active reference agent (e.g., posaconazole) were used as blank and positive controls, respectively.
On the technique in general: Broth dilution looks for growth in wells or tubes with falling amounts of substance.

The subject of assay [2] is A. fumigatus. The assay is described as follows: A. fumigatus MIC at 100% growth inhibition (CLSI M38-A2). The note with it: 100% growth inhibition, range tested 8-0.0078 μg/mL, values given as ranges; for MIC: Aspergillus fumigatus, read-out: Aspergillus fumigatus MIC. The assay is classed as cell-based, Aspergillus fumigatus. How it is done:
A. fumigatus MICs were determined at 100% growth inhibition following CLSI guidelines at a concentration range of 8-0.0078 μg/mL (CLSI M38-A2).

Turning to `CC(C)Cc1nc2ccc(N3CCN(c4ccc(-c5ccc(C(F)(F)[C@](O)(Cn6cnnn6)c6ccc(F)cc6F)nc5)cc4)CC3)cc2[nH]1` [Example 78, (R)-2-(2,4-difluorophenyl)-1,1-difluoro-1-(5-(4-(4-(2-isobutyl-1H-benzo [d]imidazol-6-yl)piperazin-1-yl)phenyl)pyridin-2-yl)-3-(1H-tetrazol-1-yl) propan-2-ol], the MIC in assay [1] was 0.01 to 0.1 µg/mL (≈ 0.0146 to 0.146 µM); in assay [2], greater than 8 µg/mL.

With `OC(c1cn(-c2ccc(N3CCN(c4ccc(-c5ccc(C(F)(F)C(O)(Cn6cnnn6)c6ccccc6F)nc5)cc4)CC3)cc2)nn1)C(F)(F)F` (single isomer, unassigned; (+)) [108(+), (+)-1,1-difluoro-2-(2-fluorophenyl)-3-(1H-tetrazol-1-yl)-1-(5-(4-(4-(4-(4-(2,2,2-trifluoro-1-hydroxyethyl)-1H-1,2,3-triazol-1-yl)phenyl)piperazin-1-yl)phenyl)pyridin-2-yl) propan-2-ol], in assay [1], the “Candida albicans MIC” value was no more than 0.0078 to 0.010 µg/mL. Further, the “Aspergillus fumigatus MIC” value in assay [2] fell in the range of 0.25 to 1.0 µg/mL.

For the compound `OC(CC(F)(F)F)c1ccc(N2CCN(c3ccc(-c4ccc(C(F)(F)[C@](O)(Cn5cnnn5)c5ccc(F)cc5F)nc4)cc3)CC2)cn1` (stereo partly drawn) [Example 13, 1-(5-(4-(4-(6-((R)-2-(2,4-difluorophenyl)-1,1-difluoro-2-hydroxy-3-(1H-tetrazol-1-yl)propyl)pyridin-3-yl)phenyl)piperazin-1-yl)pyridin-2-yl)-3,3,3-trifluoropropan-1-ol], the MIC in assay [1] lay in the range of 0.0078 to 0.01 µg/mL (≈ 0.0111 to 0.0142 µM). For the same compound, the “Aspergillus fumigatus MIC” value in assay [2] lay within 0.25 to 1.0 µg/mL.

In the case of `CC(C)(O)c1ccc(N2CCN(c3ccc(-c4ccc(C(F)(F)[C@](O)(Cn5cnnn5)c5ccc(F)cc5F)nc4)cc3)CC2)cn1` [Example 47, (R)-2-(2,4-difluorophenyl)-1,1-difluoro-1-(5-(4-(4-(6-(2-hydroxypropan-2-yl)pyridin-3-yl)piperazin-1-yl)phenyl)pyridin-2-yl)-3-(1H-tetrazol-1-yl) propan-2-ol], the minimum inhibitory concentration (MIC) in assay [1] fell in the range of 0.01 to 0.1 µg/mL (≈ 0.0154 to 0.154 µM); in assay [2], 0.25 to 1 µg/mL (≈ 0.385 to 1.54 µM).

Consider `Cn1c(N2CCN(c3ccc(-c4ccc(C(F)(F)[C@](O)(Cn5cnnn5)c5ccc(F)cc5F)nc4)cc3)CC2)nc2cc(C#N)ccc21` [Example 80, (R)-2-(4-(4-(6-(2-(2,4-difluorophenyl)-1,1-difluoro-2-hydroxy-3-(1H-tetrazol-1-yl)propyl)pyridin-3-yl)phenyl)piperazin-1-yl)-1-methyl-1H-benzo [d] imidazole-5-carbonitrile], for which the MIC was 0.0078 to 0.01 µg/mL (≈ 0.0117 to 0.015 µM) in assay [1] and greater than 8 µg/mL in assay [2].

As for `Nc1ccc(N2CCN(c3ccc(-c4ccc(C(F)(F)[C@](O)(Cn5cnnn5)c5ccc(F)cc5F)nc4)cc3)CC2)cc1` [Example 14, (R)-1-(5-(4-(4-(4-aminophenyl)piperazin-1-yl)phenyl)pyridin-2-yl)-2-(2,4-difluorophenyl)-1,1-difluoro-3-(1H-tetrazol-1-yl) propan-2-ol], the MIC is 0.01 to 0.1 µg/mL (≈ 0.0165 to 0.165 µM) in assay [1] and greater than 8 µg/mL in assay [2].

In the case of `CC(C)n1ccn(-c2ccc(N3CCN(c4ccc(-c5ccc(C(F)(F)[C@](O)(Cn6cnnn6)c6ccc(F)cc6F)nc5)cc4)CC3)cc2)c1=O` [Example 91, 1-(4-(4-(4-(6-(2-(2,4-difluorophenyl)-1,1-difluoro-2-hydroxy-3-(1H-tetrazol-1-yl)propyl)pyridin-3-yl)phenyl)piperazin-1-yl)phenyl)-3-isopropyl-1,3-dihydro-2H-imidazol-2-one], the MIC in assay [1] fell in the range of 0.0078 to 0.01 µg/mL (≈ 0.0109 to 0.014 µM); in assay [2], 0.25 to 1 µg/mL (≈ 0.35 to 1.4 µM).

Regarding `OC(c1ccc(N2CCN(c3ccc(-c4ccc(C(F)(F)[C@](O)(Cn5cnnn5)c5ccc(F)cc5F)nc4)cc3)CC2)cc1)C1CC1` (stereo partly drawn) [Example 42, (2R)-1-(5-(4-(4-(4-(cyclopropyl (hydroxy)methyl)phenyl)piperazin-1-yl)phenyl)pyridin-2-yl)-2-(2,4-difluorophenyl)-1,1-difluoro-3-(1H-tetrazol-1-yl) propan-2-ol], the MIC is 0.0078 to 0.01 µg/mL (≈ 0.0118 to 0.0152 µM) in assay [1] and greater than 8 µg/mL in assay [2].

On to `CC(C)n1ncn(-c2ccc(N3CCN(c4ccc(-c5ccc(C(F)(F)[C@](O)(Cn6cnnn6)c6ccc(F)cc6F)nc5)cc4)CC3)cc2)c1=O` [Example 52, (R)-4-(4-(4-(4-(6-(2-(2,4-difluorophenyl)-1,1-difluoro-2-hydroxy-3-(1H-tetrazol-1-yl)propyl)pyridin-3-yl)phenyl)piperazin-1-yl)phenyl)-2-isopropyl-2,4-dihydro-3H-1,2,4-triazol-3-one], for which the MIC lay in the range of 0.0078 to 0.01 µg/mL (≈ 0.0109 to 0.014 µM) in assay [1] and 0.062 to 0.25 µg/mL (≈ 0.0867 to 0.35 µM) in assay [2].

Take `OC(c1cn(-c2ccc(N3CCN(c4ccc(-c5ccc(C(F)(F)C(O)(Cn6cnnn6)c6ccccc6F)nc5)cc4)CC3)cn2)nn1)C(F)(F)F` (single isomer, unassigned; (+)) [110(+), (+)-1,1-difluoro-2-(2-fluorophenyl)-3-(1H-tetrazol-1-yl)-1-(5-(4-(4-(6-(4-(2,2,2-trifluoro-1-hydroxyethyl)-1H-1,2,3-triazol-1-yl)pyridin-3-yl)piperazin-1-yl)phenyl)pyridin-2-yl) propan-2-ol]: the “Candida albicans MIC” value in assay [1] is no more than 0.0078 to 0.010 µg/mL. Further, the “Aspergillus fumigatus MIC” value in assay [2] was 0.25 to 1.0 µg/mL.

Consider `CC(C)CC(O)c1ccc(N2CCN(c3ccc(-c4ccc(C(F)(F)[C@](O)(Cn5cnnn5)c5ccc(F)cc5F)nc4)cc3)CC2)cc1` (stereo partly drawn) [Example 41, 1-(4-(4-(4-(6-((R)-2-(2,4-difluorophenyl)-1,1-difluoro-2-hydroxy-3-(1H-tetrazol-1-yl)propyl)pyridin-3-yl)phenyl)piperazin-1-yl)phenyl)-3-methylbutan-1-ol], for which the MIC in assay [1] lay in the range of 0.0078 to 0.01 µg/mL (≈ 0.0115 to 0.0148 µM); in assay [2], 0.25 to 1 µg/mL (≈ 0.37 to 1.48 µM).

As to `Cn1c(N2CCN(c3ccc(-c4ccc(C(F)(F)[C@](O)(Cn5cnnn5)c5ccc(F)cc5F)nc4)cc3)CC2)nc2ccc(C#N)cc21` [Example 79, (R)-2-(4-(4-(6-(2-(2,4-difluorophenyl)-1,1-difluoro-2-hydroxy-3-(1H-tetrazol-1-yl)propyl)pyridin-3-yl)phenyl)piperazin-1-yl)-1-methyl-1H-benzo [d] imidazole-6-carbonitrile], the minimal inhibitory concentration (MIC) in assay [1] was in the range of 0.0078 to 0.01 µg/mL (≈ 0.0117 to 0.015 µM); in assay [2] it was 0.25 to 1 µg/mL (≈ 0.374 to 1.5 µM).

`OC(c1ccc(N2CCN(c3ccc(-c4ccc(C(F)(F)[C@](O)(Cn5cnnn5)c5ccc(F)cc5F)nc4)cc3)CC2)cc1)C(F)(F)F` (stereo partly drawn) [Example 3, (2R)-2-(2,4-difluorophenyl)-1,1-difluoro-3-(1H-tetrazol-1-yl)-1-(5-(4-(4-(4-(2,2,2-trifluoro-1-hydroxyethyl)phenyl)piperazin-1-yl)phenyl)pyridin-2-yl) propan-2-ol]: the MIC in assay [1] lay in the range of 0.0078 to 0.01 µg/mL (≈ 0.0113 to 0.0145 µM); in assay [2], 0.25 to 1 µg/mL (≈ 0.364 to 1.45 µM).

For the compound `N#Cc1ccc(N2CCN(c3ccc(-c4ccc(C(F)(F)[C@](O)(Cn5cnnn5)c5ccc(F)cc5F)nc4)cc3F)CC2)c(F)c1` [Example 9, (R)-4-(4-(4-(6-(2-(2,4-difluorophenyl)-1,1-difluoro-2-hydroxy-3-(1H-tetrazol-1-yl)propyl)pyridin-3-yl)-2-fluorophenyl)piperazin-1-yl)-3-fluorobenzonitrile], the MIC was 0.0078 to 0.01 µg/mL (≈ 0.012 to 0.0154 µM) in assay [1] and greater than 8 µg/mL in assay [2].

For the compound `O=c1n(-c2ccc(N3CCN(c4ccc(-c5ccc(C(F)(F)[C@](O)(Cn6cnnn6)c6ccc(F)cc6F)nc5)cc4)CC3)cn2)cnn1CC(F)(F)F` [Example 87, (R)-4-(5-(4-(4-(6-(2-(2,4-difluorophenyl)-1,1-difluoro-2-hydroxy-3-(1H-tetrazol-1-yl)propyl)pyridin-3-yl)phenyl)piperazin-1-yl)pyridin-2-yl)-2-(2,2,2-trifluoroethyl)-2,4-dihydro-3H-1,2,4-triazol-3-one], the MIC in assay [1] is 0.0078 to 0.01 µg/mL (≈ 0.0103 to 0.0132 µM); in assay [2], 0.062 to 0.25 µg/mL (≈ 0.082 to 0.331 µM).

`OC(c1ccc(N2CCN(c3ccc(-c4ccc(C(F)(F)[C@](O)(Cn5cnnn5)c5ccc(F)cc5F)nc4)cc3)CC2)cn1)C(F)(F)F` (single isomer, unassigned) [Example 6-Fr-II]: the “Candida albicans MIC” value in assay [1] was no more than 0.0078 to 0.010 µg/mL. Further, the “Aspergillus fumigatus MIC” value in assay [2] fell in the range of 0.25 to 1.0 µg/mL.

Turning to `OC(c1cn(-c2ccc(N3CCN(c4ccc(-c5ccc(C(F)(F)[C@](O)(Cn6cnnn6)c6ccc(F)cc6F)nc5)cc4)CC3)cc2)nn1)C(F)(F)F` (stereo partly drawn) [Example 94, (2R)-2-(2,4-difluorophenyl)-1,1-difluoro-3-(1H-tetrazol-1-yl)-1-(5-(4-(4-(4-(4-(2,2,2-trifluoro-1-hydroxyethyl)-1H-1,2,3-triazol-1-yl)phenyl)piperazin-1-yl)phenyl)pyridin-2-yl) propan-2-ol], the MIC in assay [1] is 0.0078 to 0.01 µg/mL (≈ 0.0103 to 0.0133 µM); in assay [2], 0.25 to 1 µg/mL (≈ 0.331 to 1.33 µM).

For `CC[C@H](NC(=O)Nc1ccc(N2CCN(c3ccc(-c4ccc(C(F)(F)[C@](O)(Cn5cnnn5)c5ccc(F)cc5F)nc4)cc3)CC2)cc1)[C@H](C)O` [Example 21, 1-(4-(4-(4-(6-((R)-2-(2,4-difluorophenyl)-1,1-difluoro-2-hydroxy-3-(1H-tetrazol-1-yl)propyl)pyridin-3-yl)phenyl)piperazin-1-yl)phenyl)-3-((2S,3S)-2-hydroxypentan-3-yl) urea], the figures for the MIC in assay [1] and in assay [2] were 0.01 to 0.1 µg/mL (≈ 0.0136 to 0.136 µM) and 0.25 to 1 µg/mL (≈ 0.341 to 1.36 µM), respectively.

The term MIC denotes the smallest concentration in the dilution series that meets the test's criterion for growth inhibition.
